Source: the NIST ThermoML archive (doi:10.1016/j.jct.2015.08.014)

How the values were obtained:
[1] = 101.33 kPa, Liquid; for viscosity: Capillary tube (Ostwald / Ubbelohde) method; for mass density: Vibrating tube method
[2] = xn = mol fraction of the nth substance listed; conditions: 100 kPa, Liquid, x2 = 0; for viscosity: Capillary tube (Ostwald / Ubbelohde) method; for mass density: Vibrating tube method

O=C1CCCO1 [γ-butyrolactone]
[1]
Conditions | mass density [kg/m3] | viscosity [mPa·s]
273.15 K | 1149.15 | 2.69
278.15 K | 1144.23 | 2.43
283.15 K | 1139.31 | 2.21
288.15 K | 1134.4 | 2.02
293.15 K | 1129.49 | 1.86
298.15 K | 1124.59 | 1.71
303.15 K | 1119.68 | 1.58
308.15 K | 1114.78 | 1.47
313.15 K | 1109.87 | 1.37
318.15 K | 1104.96 | 1.28
323.15 K | 1100.05 | 1.2
328.15 K | 1095.14 | –
333.15 K | 1090.22 | –

O=C1CCCO1 [γ-butyrolactone] + CCCC[N+]1(C)CCCC1.N#CN=C=[N-]
[2]
Conditions | mass density [kg/m3] | viscosity [mPa·s]
273.15 K | 1149.15 | 2.69
283.15 K | 1139.31 | 2.21
293.15 K | 1129.49 | 1.86
298.15 K | 1124.59 | 1.71
303.15 K | 1119.68 | 1.58
313.15 K | 1109.87 | 1.37
323.15 K | 1100.05 | 1.2
